Values quoted from earlier work, collected in patent US8277782B2, “Topical oral care compositions comprising host response modulating agents” (The Procter & Gamble Company, priority 2000, dated 2012).

Test system: alveolar bone
Settings: non steroidal anti-inflammatory drugs, cyclo-oxygenase inhibitors; prior knowledge

SMILES | resorption of alveolar bone
CC(C(=O)O)c1ccc(-c2ccccc2)c(F)c1 (centres unmarked) [flurbiprofen] | markedly reduce
COc1ccc2c(c1)c(CC(=O)O)c(C)n2C(=O)c1ccc(Cl)cc1 [indomethacin] | markedly reduce
